Measured values from patent US11136349.
Like-named read-outs stand apart in the source and are kept apart here.

Details: other bond

Work on `CC(C)CC1CCC(=O)N[C@@H](Cc2ccccc2)C(=O)N[C@@H](CC(C)C)C(=O)N[C@@H](C)C(=O)N[C@@H](Cc2ccccc2)C(=O)N1C` (stereo partly drawn) [cyclo-[(Me)Aba(4-iBu)-Phe-Leu-Ala-Phe]] yielded a ring closure, conversion (from acryloyl-Phe-Leu-Ala-Phe-MeLeu-OH, 17-membered ring, Ir[dF(CF3)ppy]2(dtbbpy)PF6/K2HPO4/blue LED, DMF, 5.0 mM) of 77%.

With `CC(C)C[C@@H]1NC(=O)[C@H](Cc2ccccc2)NC(=O)C(c2ccccc2)CCNC(=O)[C@H](Cc2ccccc2)NC(=O)[C@H](C)NC1=O` (stereo partly drawn) [cyclo-[Aba(2-Ph)-Phe-Le-Ala-Phe]] the ring closure, conversion (from α-phenylacryloyl-Phe-Leu-Ala-Phe-Gly-OH, 17-membered ring, Ir[dF(CF3)ppy]2(dtbbpy)PF6/K2HPO4/blue LED, DMF, 2.5 mM) was 95%.

Work on `CC(C)C[C@@H]1NC(=O)[C@H](Cc2ccc(OC(C)(C)C)cc2)NC(=O)[C@H](C(C)C)NC(=O)[C@H]([C@@H](C)OC(C)(C)C)NC(=O)[C@H](C)NC(=O)[C@@H]2CCCN2C(=O)[C@H](CC(C)C)NC(=O)[C@H](Cc2ccccc2)NC(=O)[C@H](C)NC(=O)CCCNC1=O` [cyclo-[Aba-Ala-Phe-Leu-Pro-Ala-Thr(tBu)-Val-Tyr(tBu)-Leu]] yielded a ring closure, conversion (from acryloyl-Ala-Phe-Leu-Pro-Ala-Thr(tBu)-Val-Tyr(tBu)-Leu-Gly-OH, 32-membered ring, Ir[dF(CF3)ppy]2(dtbbpy)PF6/K2HPO4/blue LED, DMF, 2.5 mM) of 64%.

For `CC(C)[C@@H]1NC(=O)[C@H](Cc2ccc(OC(C)(C)C)cc2)NC(=O)[C@H](C)N(C)C(=O)[C@H](Cc2ccccc2)NC(=O)CCCNC1=O` [cyclo-[Aba-Phe-(Me)Ala-Tyr(tBu)-Val]], the ring closure, conversion (from acryloyl-Phe-MeAla-Tyr(tBu)-Val-Gly-OH, 17-membered ring, Ir[dF(CF3)ppy]2(dtbbpy)PF6/K2HPO4/blue LED, DMF, 5.0 mM) was 66%.

In the case of `CC(C)C[C@@H]1NC(=O)[C@H](CCC(=O)NC(c2ccccc2)(c2ccccc2)c2ccccc2)NC(=O)[C@H](Cc2ccccc2)NC(=O)CCCNC(=O)[C@H](CCCCNC(=O)OC(C)(C)C)NC1=O` [cyclo-[Aba-Phe-Gln(Trt)-Leu-Lys(Boc)]], the ring closure, conversion (from acryloyl-Phe-Gln(Trt)-Leu-Lys(Boc)-Gly-OH, 17-membered ring, Ir[dF(CF3)ppy]2(dtbbpy)PF6/K2HPO4/blue LED, DMF, 2.5 mM) is reported as 94%.

With `CC(C)C[C@@H]1NC(=O)[C@H](Cc2ccccc2)NC(=O)CCCNC(=O)[C@H](Cc2ccc(Br)cc2)NC(=O)[C@H](C)NC1=O` [cyclo-[Aba-Phe-Leu-Ai-Phe(4-Br)]] the ring closure, conversion (from acryloyl-Phe-Leu-Ala-Phe(4-Br)-Gly-OH, 17-membered ring, Ir[dF(CF3)ppy]2(dtbbpy)PF6/K2HPO4/TRIP-SH/blue LED, DMF, 2.5 mM) was 48%.

For `CC(C)C[C@@H]1NC(=O)[C@H](Cc2ccccc2)NC(=O)CCCNC(=O)[C@H](Cc2cn(C(c3ccccc3)(c3ccccc3)c3ccccc3)cn2)NC(=O)[C@H](C)NC1=O` [cyclo-[Aba-Phe-Leu-Ala-His(Trt)]], the ring closure, conversion (from acryloyl-Phe-Leu-Ala-His(Trt)-Gly-OH, 17-membered ring, Ir[dF(CF3)ppy]2(dtbbpy)PF6/K2HPO4/blue LED, DMF, 1.0 mM) was 65%.

In the case of `CC(C)C[C@@H]1NC(=O)[C@H](CCC(=O)OC(C)(C)C)NC(=O)[C@@H]2CCCN2C(=O)[C@H](C)NC(=O)[C@H](Cc2ccccc2)NC(=O)CCCNC(=O)[C@H](C)NC(=O)[C@H](Cc2ccccc2)NC1=O` [cyclo-[Aba-Phe-Leu-Ala-Phe]], the ring closure, conversion (from acryloyl-Phe-Ala-Pro-Glu(OtBu)-Leu-Phe-Ala-Gly-OH, 26-membered ring, Ir[dF(CF3)ppy]2(dtbbpy)PF6/K2HPO4/blue LED, DMF, 5.0 mM) is reported as 61%.

In the case of `CC(C)C[C@@H]1NC(=O)[C@H](Cc2ccccc2)NC(=O)CCCNC(=O)[C@H](Cc2ccccc2)NC(=O)[C@H](C)NC1=O` [cyclo-[Aba-Phe-Leu-Ala-Phe]], the ring closure, conversion (from acryloyl-Phe-Leu-Ala-Phe-Gly-OH, 17-membered ring, Ir[dF(CF3)ppy]2(dtbbpy)PF6/K2HPO4/blue LED, DMF, 2.5 mM) is reported as 93%.

Work on `CSCC[C@@H]1NC(=O)[C@H](Cc2ccccc2)NC(=O)CCCNC(=O)[C@H](CCC(=O)OC(C)(C)C)NC(=O)[C@H](CC(C)C)NC1=O` [cyclo-[Aba-Phe-Met-Leu-Glu(OtBu)]] yielded a ring closure, conversion (from acryloyl-Phe-Met-Leu-Glu(tBu)-Gly-OH, 17-membered ring, Ir[dF(CF3)ppy]2(dtbbpy)PF6/K2HPO4/TRIP-SH/blue LED, DMF, 2.5 mM) of 40%.

In the case of `C#CC[C@@H]1NC(=O)[C@H](Cc2ccccc2)NC(=O)CCCNC(=O)[C@H](CCCCNC(=O)OC(C)(C)C)NC(=O)[C@H](C)NC1=O` [cyclo-[Aba-Phe-Pra-Ala-Lys(Boc)]], the ring closure, conversion (from acryloyl-Phe-Pra-Ala-Lys(Boc)-Gly-OH, 17-membered ring, Ir[dF(CF3)ppy]2(dtbbpy)PF6/K2HPO4/blue LED, DMF, 5.0 mM) is reported as 82%.

In the case of `CC(C)[C@@H]1NC(=O)CCCNC(=O)[C@H](Cc2cn(C(=O)OC(C)(C)C)c3ccccc23)NC(=O)[C@H](Cc2ccccc2)NC(=O)[C@H]([C@@H](C)OC(C)(C)C)NC1=O` [cyclo-[Aba-Val-Thr(tBu)-Phe-Trp(Boc)], the ring closure, conversion (from acryloyl-Val-Thr(tBu)-Phe-Trp(Boc)-Gly-OH, 17-membered ring, Ir[dF(CF3)ppy]2(dtbbpy)PF6/K2HPO4/blue LED, DMF, 2.5 mM) is reported as 56%.

Compound `C[C@@H]1NC(=O)CCCNC(=O)[C@H](Cc2ccc(OC(C)(C)C)cc2)NC1=O` [cyclo-[Aha-Ala-Tyr(tBu)]] has a ring closure, conversion (from acryloyl-Ala-Tyr(tBu)-Gly-OH, 11-membered ring, Ir[dF(CF3)ppy]2(dtbbpy)PF6/K2HPO4/TRIP-SH/blue LED, DMF, 1.0 mM) of 24%.

Compound `C[C@@H]1NC(=O)[C@H](CCCNC(=NC(=O)OC(C)(C)C)NC(=O)OC(C)(C)C)NC(=O)[C@H](Cc2ccccc2)NC(=O)CCCNC(=O)[C@H](COC(C)(C)C)NC1=O` [cyclo-[Aha-Phe-Arg(Bo)2-Ser(tBu)-Ala]] has a ring closure, conversion (from acryloyl-Phe-Arg(Boc)2-Ala-Ser(tBu)-Gly-OH, 17-membered ring, Ir[dF(CF3)ppy]2(dtbbpy)PF6/K2HPO4/TRIP-SH/blue LED, DMF, 2.5 mM) of 59%.

`CC(C)C[C@@H]1NC(=O)[C@H](Cc2ccccc2)NC(=O)CCC(CCC(=O)O)NC(=O)[C@H](Cc2ccccc2)NC(=O)[C@H](C)NC1=O` (stereo partly drawn) [cyclo-[Ahda-Phe-Leu-Ala-Phe]] showed a ring closure, conversion (from acryloyl-Phe-Leu-Ala-Phe-Glu-OH, 17-membered ring, Ir[dF(CF3)ppy]2(dtbbpy)PF6/K2HPO4/blue LED, DMF, 2.5 mM) of 38%.

`CC(C)C[C@@H]1NC(=O)[C@H](Cc2ccccc2)NC(=O)CCC2(CC2)NC(=O)[C@H](Cc2ccccc2)NC(=O)[C@H](C)NC1=O` [cyclo[(3-Ac)pa-Phe-Leu-Ala-Phe]] showed a ring closure, conversion (from acryloyl-Phe-Leu-Ala-Phe-Acc-OH, 17-membered ring, Ir[dF(CF3)ppy]2(dtbbpy)PF6/K2HPO4/blue LED, DMSO, 2.5 mM) of 48%.

`CC(C)C[C@@H]1NC(=O)[C@H](Cc2ccccc2)NC(=O)CCC2(CCCC2)NC(=O)[C@H](Cc2ccccc2)NC(=O)[C@H](C)NC1=O` [cyclo[(3-Aep)pa-Phe-[Leu-Aa-Phe]] showed a ring closure, conversion (from acryloyl-Phe-Leu-Ala-Phe-Aepe-OH, 17-membered ring, Ir[dF(CF3)ppy]2(dtbbpy)PF6/K2HPO4/blue LED, DMSO, 2.5 mM) of 49%.

Work on “cyclo-[Aba-Ala-Leu-Pbe-Lys(Boc)-Pro-Ala-Phe-Ala-Leu-Pro-Glu(OBu)-Leu-Phe-VaI]” yielded a ring closure, conversion (47-membered ring, Ir[dF(CF3)ppy]2(dtbbpy)PF6/K2HPO4/blue LED, DMF, 0.25 mM) of 60%.
